Assay results taken from US9493485B2, “Spirocyclic dihydro-thiazine and dihydro-oxazine BACE inhibitors, and compositions and uses thereof” (Imago Pharmaceuticals, Inc., priority 2012, dated 2016).
Where two headings read alike, the source gives them in different places.

Legend:
[1] = system: Aβ x-40 levels; test: In vivo reduction of Aβ x-40 levels in Sprague Dawley rat, oral dosing; conditions: for decrease of the mean Aβ x-40 compared to vehicle control in brain samples / effect on brain Aβ x-40 levels: rat cortical brain, 3 hours post dosing
Experimental: Ability of a compound as described herein to reduce the level of Aβ peptide in vivo was determined in a Sprague Dawley rat model. Compounds were dosed orally in female Sprague Dawley rats, along with a vehicle control, five rats per dose group. Compounds were formulated in 5% DMSO/0.5% methylcellulose, and dosed at various amounts (10 mL/kg), and 10 mL/kg vehicle by oral gavage. CSF was collected from the cistern magna under isoflurane anesthesia, frozen on dry ice and stored at −80° C. until assessed for Aβ peptide levels. […] Cortical brain samples were homogenized in 5 M guanidine and Aβ peptide was quantitated in these brain samples as well as plasma samples in an ELISA assay, where Aβ x-40 ELISA detects Aβ peptide N-terminal sequences containing the transmembrane region and ending at amino acid 40 at the C-terminus. The ELISA was performed as described in Johnson-Wood et al., PNAS February 1997, 94: 1550-1555, using capture antibody 266 (Aβ 16-23 specific) and biotinylated 2G3 (Aβ 40 specific) as reporter antibody. Results of cortical and plasma Aβ x-40 levels were statistically analyzed separately using a one-way Anova with a Dunnets post test analysis at the 0.05 significant level.

[2] = system: BACE1 inhibition in HEKp293 cells transfected with APP751 gene (SWE293); test: SWE293 cellular assay: reduction of Aβ peptide production, ELISA; assay type: cell-based; conditions: Homo sapiens, read-out: SWE293 ED50
Procedure, shortened: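 SWE293 cells (HEK293 carrying APP751), plated overnight at 37 °C, received 1:3 serially diluted compound for two successive 2 h exposures with washes between. Medium Aβ was captured on 266-antibody plates, detected with 3D6 antibody and streptavidin-AP fluorescent substrate, and quantified against an Aβ-40 standard curve.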

[3] = molecular target: Cathepsin D (Homo sapiens (Human), UniProt P07339); test: Cathepsin D FP assay; assay type: biochemical; conditions: pH 4.5, read-out: CatD FP IC50
Procedure, shortened: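 AlphaScreen (PBS, 0.01% Tween-20, 0.05% BSA, pH 7.0): compound preincubated 15 min with BACE1 ([…]), then biotinylated binding-site probe 1 h, beads 2 h; IC50 from signal. FP (100 mM sodium acetate, pH 4.5, 0.001% Tween-20): added BACE1 (0.3 nM) or cathepsin D (1.8 nM), 30 min RT.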

[4] = molecular target: T1, BACE1 (Homo sapiens (Human), UniProt P56817); test: BACE1 AlphaScreen assay (displacement of biotinylated BACE1 binding site probe); conditions: read-out: BACE1 AS IC50
[5] = molecular target: T1, BACE1; test: BACE1 FP assay; assay type: biochemical; conditions: pH 4.5
[6] = dose at which Aβ level is reduced by 50%, HEKp293 SWE293 cells

Sequence of Cathepsin D (P07339 65-412, species assumed): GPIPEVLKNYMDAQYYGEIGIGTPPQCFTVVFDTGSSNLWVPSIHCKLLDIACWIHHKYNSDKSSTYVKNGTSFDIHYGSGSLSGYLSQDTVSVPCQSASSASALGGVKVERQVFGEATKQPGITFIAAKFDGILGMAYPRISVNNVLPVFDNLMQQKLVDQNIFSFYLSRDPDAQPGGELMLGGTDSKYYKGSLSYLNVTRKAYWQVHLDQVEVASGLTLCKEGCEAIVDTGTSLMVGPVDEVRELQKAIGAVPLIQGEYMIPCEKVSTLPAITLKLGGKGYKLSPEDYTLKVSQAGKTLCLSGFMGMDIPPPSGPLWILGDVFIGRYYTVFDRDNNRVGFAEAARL
T1 sequence (P56817 46-501): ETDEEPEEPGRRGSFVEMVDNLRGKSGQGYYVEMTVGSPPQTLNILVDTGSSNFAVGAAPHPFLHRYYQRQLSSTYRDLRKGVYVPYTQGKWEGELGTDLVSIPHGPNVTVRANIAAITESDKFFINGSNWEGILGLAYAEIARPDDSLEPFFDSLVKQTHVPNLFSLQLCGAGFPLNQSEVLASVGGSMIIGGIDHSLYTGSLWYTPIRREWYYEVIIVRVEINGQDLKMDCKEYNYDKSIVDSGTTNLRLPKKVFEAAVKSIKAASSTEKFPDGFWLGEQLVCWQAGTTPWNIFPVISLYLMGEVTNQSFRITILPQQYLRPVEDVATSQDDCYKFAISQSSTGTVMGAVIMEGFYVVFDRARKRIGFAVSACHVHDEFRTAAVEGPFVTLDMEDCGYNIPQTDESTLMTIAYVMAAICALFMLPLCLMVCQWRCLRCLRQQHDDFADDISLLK

| IC50 [3] | IC50 [4] | IC50 [5] | SMILES | IC50 [2, 6] | further results |
| --- | --- | --- | --- | --- | --- |
| – | – | – | C[C@@]1(c2cc(NC(=O)c3ccc(F)cn3)ccc2F)CC2(CCOCC2)SC(N)=N1 [Compound 148] | – | decrease of the mean Aβ x-40 compared to vehicle control in brain samples ([1]; 10 mg/kg oral): 23%; decrease of the mean Aβ x-40 compared to vehicle control in brain samples ([1]; 30 mg/kg oral): 31%; decrease of the mean Aβ x-40 compared to vehicle control in brain samples ([1]; 60 mg/kg oral): 31%; decrease of the mean Aβ x-40 compared to vehicle control in brain samples ([1]; 100 mg/kg oral): 40% |
| – | – | – | CC1(c2cc(NC(=O)c3ccc(F)cn3)ccc2F)CC2(CCC2)OC(N)=N1 (centres unmarked) [Compound 125] | – | effect on brain Aβ x-40 levels ([1]; 30 or 100 mg/kg oral): no significant effect |
| – | – | – | C[C@@]1(c2cc(NC(=O)c3ccc(Cl)cn3)ccc2F)CC2(CC2)OC(N)=N1 [Compound 154] | – | decrease of the mean Aβ x-40 compared to vehicle control in brain samples ([1]; 100 mg/kg oral): 25% |
| – | – | – | C[C@@]1(c2cc(NC(=O)c3ccc(Cl)cn3)ccc2F)CC2(CCOCC2)SC(N)=N1 [Compound 151] | – | duration of reduction in Aβ x-40 levels in CSF (relative to 12 hours in brain) ([1]; 30 mg/kg oral, rat, various timepoints, CSF): longer; duration of reduction in Aβ x-40 levels in brain samples ([1]; 30 mg/kg oral, rat, various timepoints, brain): up to 12 hours |
| – | – | – | CC#Cc1cncc(-c2csc([C@]3(C)CC4(CCOCC4)OC(N)=N3)c2)c1 [Compound 104] | – | effect on brain Aβ x-40 levels ([1]; 50 and 200 mg/kg oral): no significant effect |
| 1880 nM | < 7 nM | 160 nM | CC#Cc1cncc(-c2csc(C3(C)CC4(CCOCC4)SC(N)=N3)c2)c1 (centres unmarked) [Compound 8-113, 4-methyl-4-(4-(5-(prop-1-ynyl)pyridin-3-yl)thiophen-2-yl)-9-oxa-1-thia-3-azaspiro[5.5]undec-2-en-2-amine] | 184 nM | – |
| 10600 nM | 9 nM | 4 nM | CC1(c2cc(NC(=O)c3ccc(Cl)cn3)ccc2F)CC2(CCOCC2)SC(N)=N1 (centres unmarked) [Compound 9-150, N-(3-(2-amino-4-methyl-9-oxa-1-thia-3-azaspiro[5.5]undec-2-en-4-yl)-4-fluorophenyl)-5-chloropicolinamide] | < 4 nM | – |
| > 30000 nM | 1310 nM | 7440 nM | C[C@]1(c2cc(NC(=O)c3ccc(F)cn3)ccc2F)CC2(CCC2)OC(N)=N1 [Compound 9-127, (R)—N-(3-(6-amino-8-methyl-5-oxa-7-azaspiro[3.5]non-6-en-8-yl)-4-fluorophenyl)-5-fluoropicolinamide] | > 10000 nM | – |
| > 30000 nM | 4.5 nM | 60 nM | C[C@@]1(c2cc(NC(=O)c3ccc(Cl)cn3)ccc2F)CC2(CCC(F)(F)CC2)OC(N)=N1 [Compound 9-124, (S)—N-(3-(2-amino-9,9-difluoro-4-methyl-1-oxa-3-azaspiro[5.5]undec-2-en-4-yl)-4-fluorophenyl)-5-chloropicolinamide] | 11 nM | – |

| SMILES | IC50 [3] | IC50 [4] | IC50 [5] | IC50 [2, 6] | further results |
| --- | --- | --- | --- | --- | --- |
| CC#Cc1cncc(-c2csc([C@]3(C)CC4(CCOCC4)OC(N)=N3)c2)c1 [Compound 8-104, (S)-4-methyl-4-(4-(5-(prop-1-ynyl)pyridin-3-yl)thiophen-2-yl)-1,9-dioxa-3-azaspiro[5.5]undec-2-en-2-amine] | 14800 nM | 16 nM | 406 nM | – | IC50 [2]: 157 nM |
